Test results published in patent US11053204B2, “Pyrimidinyloxy benzene derivatives as herbicides” (FMC Corporation, priority 2015, dated 2021).

Assays:
Assay type in all cases: in vivo
[1] = test system: Italian ryegrass (Lolium multiflorum); experiment: Test A preemergence, visual injury rating
Outline: (§1)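 Visual injury scored 0–100 (100 = complete control) against untreated controls about 10 days after treatment in a greenhouse. Test chemicals, formulated with surfactant in non-phytotoxic solvent, were sprayed on soil preemergence or on 2-10 cm, one- to two-leaf plants postemergence.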

[2] = test system: barnyardgrass (Echinochloa crus-galli); experiment: Test A preemergence, visual injury rating; details: for Plant response rating, Barnyardgrass: 31 g ai/ha, 0 to 100 scale, 0 no effect, 100 complete control; for Barnyardgrass plant response rating: 125 g ai/ha, 0 to 100 scale (0 no effect, 100 complete control)
Outline: as §1

[3] = test system: giant foxtail (Setaria faberii); experiment: Test A preemergence, visual injury rating
Outline: as §1

kochia (Kochia scoparia) [4] = experiment: Test A preemergence, visual injury rating
Outline: as §1

[5] = test system: pigweed (Amaranthus retroflexus); experiment: Test A preemergence, visual injury rating
Outline: as §1

[6] = test system: ragweed (common ragweed, Ambrosia elatior); experiment: Test A preemergence, visual injury rating
Outline: as §1

[7] = test system: Italian ryegrass (Lolium multiflorum); experiment: Test A postemergence, visual injury rating; details: 0 to 100 scale, 0 is no effect, 100 is complete control, approximately 10 days
Outline: as §1

[8] = test system: barnyardgrass (Echinochloa crus-galli); experiment: Test A postemergence, visual injury rating; details: 0 to 100 scale, 0 is no effect, 100 is complete control, approximately 10 days
Outline: as §1

[9] = test system: blackgrass (Alopecurus myosuroides); experiment: Test A postemergence, visual injury rating; details: 0 to 100 scale, 0 is no effect, 100 is complete control, approximately 10 days
Outline: as §1

corn (Zea mays) = experiment: Test A postemergence, visual injury rating; details: 0 to 100 scale, 0 is no effect, 100 is complete control, approximately 10 days
Outline: as §1

[10] = test system: galium (catchweed bedstraw, Galium aparine); experiment: Test A postemergence, visual injury rating; details: 0 to 100 scale, 0 is no effect, 100 is complete control, approximately 10 days
Outline: as §1

[11] = test system: giant foxtail (Setaria faberii); experiment: Test A postemergence, visual injury rating; details: 0 to 100 scale, 0 is no effect, 100 is complete control, approximately 10 days
Outline: as §1

kochia (Kochia scoparia) [12] = experiment: Test A postemergence, visual injury rating; details: 0 to 100 scale, 0 is no effect, 100 is complete control, approximately 10 days
Outline: as §1

[13] = test system: pigweed (Amaranthus retroflexus); experiment: Test A postemergence, visual injury rating; details: 0 to 100 scale, 0 is no effect, 100 is complete control, approximately 10 days
Outline: as §1

[14] = test system: ragweed (common ragweed, Ambrosia elatior); experiment: Test A postemergence, visual injury rating; details: 0 to 100 scale, 0 is no effect, 100 is complete control, approximately 10 days
Outline: as §1

[15] = test system: wheat (Triticum aestivum); experiment: Test A postemergence, visual injury rating; details: 0 to 100 scale, 0 is no effect, 100 is complete control, approximately 10 days
Outline: as §1

[16] = test system: barnyardgrass (Echinochloa crus-galli); experiment: Test B flooded paddy test, plant response rating; details: 250 g ai/ha; Flood; scale of 0 to 100 where 0 is no effect and 100 is complete control; 13 to 15 days
Outline: (§2)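 Under a constant 3 cm flood, test compounds went directly into the paddy water. Following 13 to 15 days of greenhouse growth, treated species and controls were compared by eye.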

[17] = test system: ducksalad (Heteranthera limosa); experiment: Test B flooded paddy test, plant response rating; details: 250 g ai/ha; Flood; scale of 0 to 100 where 0 is no effect and 100 is complete control; 13 to 15 days
Outline: as §2

rice (Oryza sativa) = experiment: Test B flooded paddy test, plant response rating; details: 250 g ai/ha; Flood; scale of 0 to 100 where 0 is no effect and 100 is complete control; 13 to 15 days
Outline: as §2

[18] = test system: sedge, umbrella (small-flower umbrella sedge, Cyperus difformis); experiment: Test B flooded paddy test, plant response rating; details: 250 g ai/ha; Flood; scale of 0 to 100 where 0 is no effect and 100 is complete control; 13 to 15 days
Outline: as §2

[19] = 31 g ai/ha, 0 to 100 scale, 0 no effect, 100 complete control
[20] = 125 g ai/ha, 0 to 100 scale (0 no effect, 100 complete control)

SMILES	Plant response rating, Ryegrass, Italian [1, 19]	Plant response rating, Ryegrass, Italian [1, 20]	Plant response rating, Barnyardgrass [2]	Barnyardgrass plant response rating [2]	Plant response rating, Foxtail, Giant [3, 19]	Plant response rating, Foxtail, Giant [3, 20]	Plant response rating, Kochia (kochia (Kochia scoparia) [4]; [19])	Plant response rating, Kochia (kochia (Kochia scoparia) [4]; [20])	Plant response rating, Pigweed [5, 19]	Plant response rating, Pigweed [5, 20]	Plant response rating, Ragweed [6, 19]	Plant response rating, Ragweed [6, 20]	Ryegrass, Italian plant response rating ([7]; 31 g ai/ha)	Ryegrass, Italian plant response rating ([7]; 125 g ai/ha)	Barnyardgrass plant response rating ([8]; 31 g ai/ha)	Barnyardgrass plant response rating ([8]; 125 g ai/ha)	Blackgrass plant response rating ([9]; 31 g ai/ha)	Blackgrass plant response rating ([9]; 125 g ai/ha)	Corn plant response rating (corn (Zea mays); 31 g ai/ha)	Corn plant response rating (corn (Zea mays); 125 g ai/ha)	other results
CCCCOC(=O)c1c(Br)cccc1Oc1ncc(Cl)cn1 [Compound 100]	0	0	40	100	50	100	0	0	0	60	0	0	0	20	10	50	0	40	10	10	Galium plant response rating ([10]; 31 g ai/ha): 20; Galium plant response rating ([10]; 125 g ai/ha): 70; Foxtail, Giant plant response rating ([11]; 31 g ai/ha): 20; Foxtail, Giant plant response rating ([11]; 125 g ai/ha): 70; Kochia plant response rating (kochia (Kochia scoparia) [12]; 31 g ai/ha): 60; Kochia plant response rating (kochia (Kochia scoparia) [12]; 125 g ai/ha): 80; Pigweed plant response rating ([13]; 31 g ai/ha): 30; Pigweed plant response rating ([13]; 125 g ai/ha): 70; Ragweed plant response rating ([14]; 31 g ai/ha): 0; Ragweed plant response rating ([14]; 125 g ai/ha): 0; Wheat plant response rating ([15]; 31 g ai/ha): 0; Wheat plant response rating ([15]; 125 g ai/ha): 0; Plant response rating, Barnyardgrass [16]: 40; Plant response rating, Ducksalad [17]: 90; Plant response rating, Rice (rice (Oryza sativa)): 0; Plant response rating, Sedge, Umbrella [18]: 70
CCCCCOC(=O)c1c(Br)cccc1Oc1ncc(Cl)cn1 [Compound 101]	0	0	0	10	0	40	0	0	0	0	0	0	0	10	10	20	0	0	0	0	Galium plant response rating ([10]; 31 g ai/ha): 10; Galium plant response rating ([10]; 125 g ai/ha): 40; Foxtail, Giant plant response rating ([11]; 31 g ai/ha): 0; Foxtail, Giant plant response rating ([11]; 125 g ai/ha): 20; Kochia plant response rating (kochia (Kochia scoparia) [12]; 31 g ai/ha): 0; Kochia plant response rating (kochia (Kochia scoparia) [12]; 125 g ai/ha): 20; Pigweed plant response rating ([13]; 31 g ai/ha): 20; Pigweed plant response rating ([13]; 125 g ai/ha): 60; Ragweed plant response rating ([14]; 31 g ai/ha): 0; Ragweed plant response rating ([14]; 125 g ai/ha): 0; Wheat plant response rating ([15]; 31 g ai/ha): 0; Wheat plant response rating ([15]; 125 g ai/ha): 0; Plant response rating, Barnyardgrass [16]: 0; Plant response rating, Ducksalad [17]: 0; Plant response rating, Rice (rice (Oryza sativa)): 0; Plant response rating, Sedge, Umbrella [18]: 0
O=C(OCC(F)(F)C(F)F)c1c(Br)cccc1Oc1ncc(Cl)cn1 [Compound 103]	0	0	0	50	10	60	0	70	40	100	0	0	0	0	0	30	0	10	20	20	Galium plant response rating ([10]; 31 g ai/ha): 70; Galium plant response rating ([10]; 125 g ai/ha): 100; Foxtail, Giant plant response rating ([11]; 31 g ai/ha): 10; Foxtail, Giant plant response rating ([11]; 125 g ai/ha): 70; Kochia plant response rating (kochia (Kochia scoparia) [12]; 31 g ai/ha): 70; Kochia plant response rating (kochia (Kochia scoparia) [12]; 125 g ai/ha): 100; Pigweed plant response rating ([13]; 31 g ai/ha): 90; Pigweed plant response rating ([13]; 125 g ai/ha): 100; Ragweed plant response rating ([14]; 31 g ai/ha): 0; Ragweed plant response rating ([14]; 125 g ai/ha): 0; Wheat plant response rating ([15]; 31 g ai/ha): 0; Wheat plant response rating ([15]; 125 g ai/ha): 0; Plant response rating, Barnyardgrass [16]: 0; Plant response rating, Ducksalad [17]: 95; Plant response rating, Rice (rice (Oryza sativa)): 20; Plant response rating, Sedge, Umbrella [18]: 95
